# From patent US4405642A, “Method for treatment or prophylaxis of cardiac disorders” (American Hospital Supply Corporation, priority 1980, dated 1983)
# Where a name gives a salt, the structure may show the parent alone.
# Assays:
# [1] = molecular target: T1, β-adrenergic receptors (guinea pig right atria) (Cavia porcellus, UniProt H0W3H1); assay: β-blocking activity in vitro, guinea pig right atria (rate response to isoproterenol); format: cell-based; settings: vs isoproterenol, guinea pig right atria, 60 minute incubation, 37° C.; for Kb: read-out: pA2 Atria (converted)
# T1 construct: Atria were allowed to beat spontaneously under a loading tension; from tissue; host or cells: guinea pig right atria (isolated, spontaneously beating)
# T1 sequence (H0W3H1 1-470): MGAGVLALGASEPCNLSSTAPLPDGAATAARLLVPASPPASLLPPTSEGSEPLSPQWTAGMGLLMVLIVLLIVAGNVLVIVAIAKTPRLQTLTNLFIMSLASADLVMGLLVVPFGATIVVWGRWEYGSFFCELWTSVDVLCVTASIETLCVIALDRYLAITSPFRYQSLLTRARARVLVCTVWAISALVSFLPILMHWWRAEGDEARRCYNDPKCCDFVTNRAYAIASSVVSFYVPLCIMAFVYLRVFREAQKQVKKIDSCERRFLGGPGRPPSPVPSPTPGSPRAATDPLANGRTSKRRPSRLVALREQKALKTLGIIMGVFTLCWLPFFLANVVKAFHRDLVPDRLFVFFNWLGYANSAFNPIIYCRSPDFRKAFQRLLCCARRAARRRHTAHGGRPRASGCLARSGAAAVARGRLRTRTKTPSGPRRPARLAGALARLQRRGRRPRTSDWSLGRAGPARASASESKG
# Experimental: (§1) Each tissue was suspended between a fixed glass rod and a Statham® Universal Transducer connected to a Beckman® recorder. Atria were allowed to beat spontaneously under a loading tension of approximately 0.5 gm. Instrinsic depressant or stimulant activity was determined for each compound by progressively increasing concentrations in the tissue baths at 60-minute intervals. Tissues were not washed between increments. The maximum concentration showing little or no cardiodepressant activity was chosen for blockade experiments. Changes in rate in response to isoproterenol were measured in the absence and presence of test compounds. Spiral strips of guinea pig trachea were suspended under 5 gm resting tension and incubated with phentolamine, tropolone and cocaine. Active tension was generated by addition of carbachol (3.0×10^-7 M) and decreases in tension in response to isoproterenol were quantitated. Cumulative concentration-response curves were produced with isoproterenol both before and after 60 minute incubation of test compounds with atria and trachea. The blocking potency of test compounds was estimated by computing pA2 values (-log […]) by the method of Furchgott, The Pharmacological Differentiation of Adrenergic Receptors, Ann. […] The degree of cardioselectivity was estimated from the ratio, KB trachea/KB atria (10^(pA.sbsp.2^atria-pA.sbsp.2^trachea)). A ratio greater than one indicates cardioselectivity. Test drugs were dissolved in distilled water and added to the bath (30 ml) in a volume of 10 or 100 μl.
# [2] = system: β-adrenergic receptors (guinea pig right atria); assay: as above; format: cell-based; settings: ratio from pA2 atria and trachea; greater than one indicates cardioselectivity
# Experimental: as §1
# [3] = molecular target: T2, β-adrenergic receptors (guinea pig tracheal strips) (Cavia porcellus, UniProt Q8K4Z4); assay: β-blocking activity in vitro, guinea pig tracheal strips (tension response to isoproterenol); format: cell-based; settings: vs isoproterenol, 60 minute incubation, 37° C., read-out: pA2 Trachea (converted)
# T2 construct: from tissue; host or cells: guinea pig trachea (isolated spiral strips)
# T2 sequence (Q8K4Z4 whole entry): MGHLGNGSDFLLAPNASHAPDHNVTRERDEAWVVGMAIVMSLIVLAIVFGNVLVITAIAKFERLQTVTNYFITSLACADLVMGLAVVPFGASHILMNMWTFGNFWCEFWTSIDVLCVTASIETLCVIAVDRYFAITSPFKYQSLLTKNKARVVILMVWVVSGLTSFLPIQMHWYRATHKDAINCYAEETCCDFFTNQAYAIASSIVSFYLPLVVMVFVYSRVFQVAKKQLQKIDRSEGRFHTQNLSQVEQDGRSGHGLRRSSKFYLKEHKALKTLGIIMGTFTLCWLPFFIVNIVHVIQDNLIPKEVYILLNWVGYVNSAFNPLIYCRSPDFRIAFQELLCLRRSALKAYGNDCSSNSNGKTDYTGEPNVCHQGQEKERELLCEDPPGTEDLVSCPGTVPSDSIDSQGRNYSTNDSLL
# Experimental: as §1
# [4] = system: heart rate response to isoproterenol; assay: Duration of beta-blockade in vivo, anesthetized dogs, 40-minute infusion; design: species or system dog; settings: for Recovery Times 50%: 50% recovery of heart rate after 40-minute infusion; for Recovery Times 50% / Recovery Times 80% / Recovery Times 100%: normalized to 50% inhibition, dog; for Recovery Times 80%: 80% recovery of heart rate after 40-minute infusion; for Recovery Times 100%: 100% recovery of heart rate after 40-minute infusion; for ED50: Canis lupus familiaris, iv, 40 min, read-out: Potency
# Experimental: (§2) The duration of beta-blockade was determined in vivo using pentobarbitalanesthetized dogs instrumented for measurement of heart rate using a Beckman® cardiotachometer triggered electronically by a phasic aortic blood pressure signal. Both vagus nerves were severed in the cervical region and the animals were mechanically ventilated. Two experimental designs were used. The first employed a 40-minute infusion of test compound and the second used a 3-hour infusion of test compound. In the 40-minute model, isoproterenol was infused into a foreleg vein at the rate of 0.5 μg/kg/min to induce a beta-receptor mediated tachycardia. Various doses of test compound where then infused into a femoral vein over a period of 40 minutes. This infusion was then terminated and recovery from blockade was quantitated. […] This cumulative dose is expressed as mg/kg and is an indication of potency. The time period required for 80% recovery of heart rate for each dose of test drug was also measured to quantitate duration of action. […] Test compounds were dissolved in 0.9% NaCl and infused at a rate of 0.05 ml/kg/min or less. In the 3-hour infusion model, bolus doses of isoproterenol (0.5 μg/kg) were used to assess the degree of beta-blockade and recovery from beta-blockade after termination of the infusion. The doses were spaced at 10-minute intervals and were given before, during and following the infusion of test compounds. The infusion rate was adjusted so that at the end of the 3-hour infusion period the degree of isoproterenol inhibition averaged about 50% of control.
# [5] = system: heart rate response to isoproterenol; assay: Duration of beta-blockade in vivo, anesthetized dogs, 3-hour infusion; settings: dog; for 80% Recovery Time: after termination of 3-hour infusion; for % I (Percent inhibition of heart rate response to isoproterenol): end of 3-hour infusion, bolus isoproterenol 0.5 μg/kg
# Experimental: as §2
# [6] = Disappearance in vitro in human whole blood; format: in vitro ADME; settings: 50 μg test compound, 37° C., read-out: T1/2 Human Whole Blood
# Experimental: (§3) The rate of disappearance of a compound is expressed as the half-life (T1/2), which is the time period in which one half of the initial amount of compound tested disappears. […] The samples were incubated in a Dubnoff shaking metabolic incubator for 2.5, 5.0, 10.0, 20.0, 30.0 and 60.0 minutes at 37° C. At the designated time periods, the test mixtures were removed from the incubator and transferred to a 0° C. ice bath. Acetonitrile (2 ml) was immediately added and the mixtures were mixed to stop enzymatic hydrolysis. Zero time samples were prepared by adding 2 ml. of acetonitrile to denature the proteins prior to addition of the test compounds. After centrifugation to sediment denatured proteins, 2 ml. of the supernatant was removed and analyzed by high pressure liquid chromatography, using a mobile phase of 60% acetonitrile/40% 0.05 m sodium phosphate buffer (pH 6.6), a U.V. detector and Waters® μ Bondapak Phenyl column. The half life of each test compound was determined graphically by plotting the decrease in concentration as a function of time.
# [7] = Disappearance in vitro in dog whole blood; format: in vitro ADME; settings: 50 μg test compound, 37° C., read-out: T1/2 Dog Whole Blood
# Experimental: as §3
structure (smiles),measurement,setting,value
"COc1ccc(CCNCC(O)C(=O)Oc2ccccc2)cc1OC (centres unmarked) [Example I, N-(3,4-Dimethoxyphenethyl)-N-[(2-hydroxy-2-phenoxycarbonyl)ethyl-]amine Hydrochloride]",Kb,[1],1260 nM
same,Cardioselectivity KB (Trachea)/KB (Atria),[2],1
same,Kb,[3],1260 nM
same,Recovery Times 50%,[4],6 ± 1 min
same,Recovery Times 80%,[4],11 ± 1 min
same,Recovery Times 100%,[4],16 ± 2 min
same,ED50,[4],3.5 ± 0.5 mg/kg
COc1ccc(CCNCC(O)COC(=O)c2cccc(C)c2)cc1OC (centres unmarked) [Example IX],Recovery Times 50%,[4],6 ± 1 min
same,Recovery Times 80%,[4],10 ± 1 min
same,Recovery Times 100%,[4],16 ± 2 min
same,ED50,[4],4.7 ± 1.7 mg/kg
"CC(C)NCC(O)COC(=O)c1ccc(N)cc1 (centres unmarked) [Example LIV, [2-Hydroxy-3-(isopropylamino)]propyl 4-aminobenzoate hydrochloride]",80% Recovery Time,[5],> 60 min
same,% I (Percent inhibition of heart rate response to isoproterenol),[5],80 ± 4%
CC(C)NCC(O)COC(=O)c1cccc(N)c1 (centres unmarked) [Example LV],Kb,[1],398 nM
same,Kb,[3],158 nM
"CC(=O)Nc1ccc(C(=O)OCC(O)CNC(C)C)cc1 (centres unmarked) [Example LXII, [2-Hydroxy-3-(isopropylamino)]propyl 4-(acetamido)benzoate hydrochloride]",Kb,[1],1580 nM
same,Cardioselectivity KB (Trachea)/KB (Atria),[2],4
same,Kb,[3],6310 nM
"CC(C)NCC(O)COC(=O)c1ccc(CO)cc1 (centres unmarked) [Example LXIV, [2-Hydroxy-3(isopropylamino)]propyl 4-(hydroxymethyl)benzoate hydrochloride]",Kb,[3],501 nM
"COc1ccccc1COC(=O)C(O)CNCCc1ccc(OC)c(OC)c1 (centres unmarked) [Example V, 2-Methoxybenzyl 3-[[N-(3,4-Dimethoxyphenethyl)]amino]-2-hydroxypropionate]",pA2 Atria,[1],inactive
same,Kb,[3],10000 nM
same,Potency,"[4]; cumulative dose over 40-minute infusion, normalized to 50% inhibition of isoproterenol response, dog i.v.",low
Cc1cccc(C(=O)OCC(O)CNC(C)C)c1 (centres unmarked) [Example VIII],Kb,[1],158 nM
same,Kb,[3],50.1 nM
same,Recovery Times 50%,[4],7 ± 1 min
same,Recovery Times 80%,[4],14 ± 3 min
same,Recovery Times 100%,[4],20 ± 4 min
same,ED50,[4],1.83 ± 0.11 mg/kg
COc1ccc(CCNCC(O)COC(=O)c2ccccc2)cc1OC (centres unmarked) [Example VII],Kb,[1],100 nM
same,Cardioselectivity KB (Trachea)/KB (Atria),[2],5
same,Kb,[3],501 nM
same,80% Recovery Time,[5],29 ± 5 min
same,% I (Percent inhibition of heart rate response to isoproterenol),[5],45 ± 2%
COc1ccc(CCNCC(O)COC(=O)c2ccc(C)cc2)cc1OC (centres unmarked) [Example XI],Kb,[1],251 nM
same,Cardioselectivity KB (Trachea)/KB (Atria),[2],4
same,Kb,[3],1000 nM
same,Recovery Times 50%,[4],8 ± 1 min
same,Recovery Times 80%,[4],16 ± 2 min
same,Recovery Times 100%,[4],25 ± 3 min
same,ED50,[4],17.2 ± 5.8 mg/kg
CC(C)NCC(O)COC(=O)c1cccc([N+](=O)[O-])c1 (centres unmarked) [Example XXI],Kb,[1],158 nM
same,Kb,[3],63.1 nM
CC(C)NCC(O)COC(=O)c1ccc(F)cc1 (centres unmarked) [Example XX],Kb,[1],251 nM
same,Kb,[3],50.1 nM
same,half-life,[6],3.5 ± 0.9 min
same,half-life,[7],4 min
COc1ccc(CCNCC(O)C(=O)Oc2ccccc2C)cc1OC (centres unmarked) [II],Kb,[1],1260 nM
CCC(C)(C)NCC(O)COC(=O)c1ccccc1F (centres unmarked) [LIII],Kb,[1],158 nM
CC(C)NCC(O)COC(=O)c1ccc(O)cc1 (centres unmarked) [LVI],Kb,[1],158 nM
same,Kb,[3],63.1 nM
same,% I (Percent inhibition of heart rate response to isoproterenol),[5],79 ± 9%
"CCCNCC(O)COC(=O)c1ccc(N)cc1 (centres unmarked) [LXV, [2-Hydroxy-3-(n-propyl)amino]propyl 4-aminobenzoate oxalate]",Kb,[1],1260 nM
"COc1ccc(CCNCC(O)COC(=O)c2ccc(CO)cc2)cc1OC (centres unmarked) [LXVI, [2-Hydroxy-3-[(N3,4-dimethoxyphenethyl)amino]propyl 4-(hydroxymethyl) benzoate oxalate]",Kb,[1],> 3160 nM
"CC(C)NCC(O)COc1cccc2ccccc12 (centres unmarked) [Propranolol, reference compound]",Recovery Times 50%,[4],23 ± 4 min
same,Recovery Times 80%,[4],42 ± 8 min
same,Recovery Times 100%,[4],58 ± 9 min
same,80% Recovery Time,[5],> 60 min
COc1ccc(CCNCC(O)COC(=O)c2ccccc2Cl)cc1OC (centres unmarked) [XIII],Kb,[1],15.8 nM
same,Cardioselectivity KB (Trachea)/KB (Atria),[2],2
same,Kb,[3],31.6 nM
same,Recovery Times 50%,[4],7 min
same,Recovery Times 80%,[4],12 ± 1 min
same,Recovery Times 100%,[4],24 min
same,ED50,[4],2 ± 0.6 mg/kg
CC(C)NCC(O)COC(=O)c1cccc(F)c1 (centres unmarked) [XIX],Kb,[3],100 nM
same,half-life,[6],8 ± 4 min
same,half-life,[7],50 min
Cc1cccc(C(=O)OCC(O)CNC(C)(C)C)c1 (centres unmarked) [XLII],half-life,[6],5.5 ± 2.6 min
same,half-life,[7],150 min
Cc1ccccc1C(=O)OCC(O)CNC(C)(C)C (centres unmarked) [XLI],half-life,[6],> 180 min
same,half-life,[7],> 180 min
CC(C)(C)NCC(O)COC(=O)c1ccc(F)cc1 (centres unmarked) [XL],half-life,[6],11 ± 5 min
same,half-life,[7],13 min
CC(C)NCC(O)COC(=O)c1ccccc1F (centres unmarked) [XVIII],Kb,[3],79.4 nM
same,Recovery Times 80%,[4],8 ± 1 min
same,ED50,[4],1.5 mg/kg
same,80% Recovery Time,[5],25 ± 9 min
same,% I (Percent inhibition of heart rate response to isoproterenol),[5],46 ± 5%
same,half-life,[6],1.7 ± 0.6 min
same,half-life,[7],7 min
CC(C)NCC(O)COC(=O)c1ccc2ccccc2c1 (centres unmarked) [XVI],Kb,[1],398 nM
same,Kb,[3],251 nM
CC(C)NCC(O)COC(=O)c1cccc2ccccc12 (centres unmarked) [XV],Kb,[1],251 nM
same,Kb,[3],100 nM
same,Recovery Times 50%,[4],18 min
same,Recovery Times 80%,[4],22 min
same,Recovery Times 100%,[4],38 min
same,ED50,[4],1.5 mg/kg
same,80% Recovery Time,[5],> 60 min
same,% I (Percent inhibition of heart rate response to isoproterenol),[5],54%
CCCOc1ccccc1C(=O)OCC(O)CNC(C)C (centres unmarked) [XXVII],Kb,[1],251 nM
same,80% Recovery Time,[5],> 60 min
same,% I (Percent inhibition of heart rate response to isoproterenol),[5],69%
COc1ccc(CCNCC(O)COC(=O)c2ccccc2F)cc1OC (centres unmarked) [XXXIII],Kb,[1],794 nM
same,Cardioselectivity KB (Trachea)/KB (Atria),[2],2.5
same,Kb,[3],2000 nM
COc1ccc(CCNCC(O)COC(=O)c2cccc(F)c2)cc1OC (centres unmarked) [XXXIV],Kb,[1],398 nM
same,Cardioselectivity KB (Trachea)/KB (Atria),[2],2
same,Kb,[3],631 nM
COc1ccc(CCNCC(O)COC(=O)c2ccccc2C)cc1OC (centres unmarked) [XXXI],80% Recovery Time,[5],> 60 min
same,% I (Percent inhibition of heart rate response to isoproterenol),[5],85%
CC(C)(C)NCC(O)COC(=O)c1ccccc1 (centres unmarked) [XXXVII],Kb,[1],158 nM
same,Kb,[3],20 nM
same,80% Recovery Time,[5],> 60 min
same,% I (Percent inhibition of heart rate response to isoproterenol),[5],64 ± 5%
same,half-life,[6],5.3 ± 1 min
same,half-life,[7],5.5 min
COc1ccc(CCNCC(O)COC(=O)c2ccc(F)cc2)cc1OC (centres unmarked) [XXXV],Kb,[1],100 nM
same,Cardioselectivity KB (Trachea)/KB (Atria),[2],2
same,Kb,[3],200 nM
same,80% Recovery Time,[5],> 60 min
same,% I (Percent inhibition of heart rate response to isoproterenol),[5],59%
CC(C)NCC(O)COC(=O)c1ccc(OCc2ccccc2)cc1 (centres unmarked) [XXX],Kb,[1],> 1000 nM
